Test results reported in PubChem BioAssay (NCI).
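Tested at 5 concentrations; 48 h exposure; 96-well plates; endpoints linearly interpolated, else capped at highest concentration. GI50 = concentration required for 50% inhibition of growth. The concentration for full growth arrest is given as TGI.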

Key:
Experiment in all cases: growth of human tumour cells (NCI), 48 h
SK-MEL-28 melanoma = tested on: SK-MEL-28 melanoma
SF-295 CNS = tested on: SF-295 CNS
K-562 leukemia = tested on: K-562 leukemia
CAKI-1 renal = tested on: CAKI-1 renal
HCT-116 colon = tested on: HCT-116 colon
ACHN renal = tested on: ACHN renal
NCI-H23 lung = tested on: NCI-H23 lung
BT-549 breast = tested on: BT-549 breast
HT29 colon = tested on: HT29 colon
HOP-92 NSCLC = tested on: HOP-92 NSCLC
COLO 205 colon = tested on: COLO 205 colon
SK-MEL-2 melanoma = tested on: SK-MEL-2 melanoma
UACC-257 melanoma = tested on: UACC-257 melanoma
EKVX NSCLC = tested on: EKVX NSCLC
U251 CNS = tested on: U251 CNS
MCF7 breast = tested on: MCF7 breast
DU-145 prostate = tested on: DU-145 prostate
HS 578T breast = tested on: HS 578T breast
T-47D breast = tested on: T-47D breast
M14 melanoma = tested on: M14 melanoma
RXF 393 renal = tested on: RXF 393 renal
SF-539 CNS = tested on: SF-539 CNS
SK-MEL-5 melanoma = tested on: SK-MEL-5 melanoma
HCC-2998 colon = tested on: HCC-2998 colon
TK-10 renal = tested on: TK-10 renal
CCRF-CEM leukemia = tested on: CCRF-CEM leukemia
SF-268 CNS = tested on: SF-268 CNS
NCI-H522 lung = tested on: NCI-H522 lung
SW-620 colon = tested on: SW-620 colon
MDA-MB-435 = tested on: MDA-MB-435
A549 NSCLC = tested on: A549 NSCLC
HL-60(TB) leukemia = tested on: HL-60(TB) leukemia
MALME-3M melanoma = tested on: MALME-3M melanoma
UACC-62 melanoma = tested on: UACC-62 melanoma
SNB-19 CNS = tested on: SNB-19 CNS
MDA-MB-231 breast = tested on: MDA-MB-231 breast
UO-31 renal = tested on: UO-31 renal
OVCAR-4 ovarian = tested on: OVCAR-4 ovarian
NCI-H460 lung = tested on: NCI-H460 lung
RPMI-8226 leukemia = tested on: RPMI-8226 leukemia
786-0 renal = tested on: 786-0 renal
SK-OV-3 ovarian = tested on: SK-OV-3 ovarian
PC-3 prostate = tested on: PC-3 prostate
LOX IMVI melanoma = tested on: LOX IMVI melanoma
OVCAR-5 ovarian = tested on: OVCAR-5 ovarian
HCT-15 colon = tested on: HCT-15 colon
SR leukemia = tested on: SR leukemia
MOLT-4 leukemia = tested on: MOLT-4 leukemia
NCI/ADR-RES ovarian = tested on: NCI/ADR-RES ovarian
SNB-75 CNS = tested on: SNB-75 CNS
IGROV1 ovarian = tested on: IGROV1 ovarian
NCI-H226 lung = tested on: NCI-H226 lung
HOP-62 NSCLC = tested on: HOP-62 NSCLC
OVCAR-3 ovarian = tested on: OVCAR-3 ovarian
OVCAR-8 ovarian = tested on: OVCAR-8 ovarian
SN12C renal = tested on: SN12C renal
A498 renal = tested on: A498 renal
KM12 colon = tested on: KM12 colon

Cc1nc2cc(-c3nn(C(C)C)c4ncnc(N)c34)ccc2o1
GI50 (SK-MEL-28 melanoma): 6.62 nM
TGI (SK-MEL-28 melanoma): 125 nM
GI50 (SF-295 CNS): 6.99 nM
TGI (SF-295 CNS): 78.1 nM
GI50 (K-562 leukemia): 28.8 nM
TGI (K-562 leukemia): > 10000 nM
GI50 (CAKI-1 renal): 4.9 nM
TGI (CAKI-1 renal): 84.4 nM
GI50 (HCT-116 colon): 35 nM
TGI (HCT-116 colon): > 10000 nM
GI50 (ACHN renal): 10.2 nM
TGI (ACHN renal): 1220 nM
GI50 (NCI-H23 lung): 41.5 nM
TGI (NCI-H23 lung): > 7000 nM
GI50 (BT-549 breast): 3.51 nM
TGI (BT-549 breast): 61 nM
GI50 (HT29 colon): 20.8 nM
TGI (HT29 colon): > 5340 nM
GI50 (HOP-92 NSCLC): 1.96 nM
TGI (HOP-92 NSCLC): 34.4 nM
GI50 (COLO 205 colon): 12.1 nM
TGI (COLO 205 colon): 870 nM
GI50 (SK-MEL-2 melanoma): 21.3 nM
TGI (SK-MEL-2 melanoma): 137 nM
GI50 (UACC-257 melanoma): 11.1 nM
TGI (UACC-257 melanoma): 112 nM
GI50 (EKVX NSCLC): 14.1 nM
TGI (EKVX NSCLC): 286 nM
GI50 (U251 CNS): 19.4 nM
TGI (U251 CNS): 2350 nM
GI50 (MCF7 breast): 3.79 nM
TGI (MCF7 breast): > 10000 nM
GI50 (DU-145 prostate): 19.7 nM
TGI (DU-145 prostate): > 10000 nM
GI50 (HS 578T breast): 5.18 nM
TGI (HS 578T breast): 47.3 nM
GI50 (T-47D breast): 1.34 nM
TGI (T-47D breast): 15.8 nM
GI50 (M14 melanoma): 9.73 nM
TGI (M14 melanoma): 1210 nM
GI50 (RXF 393 renal): 6.62 nM
TGI (RXF 393 renal): 104 nM
GI50 (SF-539 CNS): 22.7 nM
TGI (SF-539 CNS): 169 nM
GI50 (SK-MEL-5 melanoma): 15.8 nM
TGI (SK-MEL-5 melanoma): 103 nM
GI50 (HCC-2998 colon): 12.2 nM
TGI (HCC-2998 colon): > 10000 nM
GI50 (TK-10 renal): 6.25 nM
TGI (TK-10 renal): 166 nM
GI50 (CCRF-CEM leukemia): 27 nM
TGI (CCRF-CEM leukemia): > 10000 nM
GI50 (SF-268 CNS): 14.3 nM
TGI (SF-268 CNS): 1840 nM
GI50 (NCI-H522 lung): 3.64 nM
TGI (NCI-H522 lung): 787 nM
GI50 (SW-620 colon): 36.6 nM
TGI (SW-620 colon): > 10000 nM
GI50 (MDA-MB-435): 8.54 nM
TGI (MDA-MB-435): 98.2 nM
GI50 (A549 NSCLC): 12.7 nM
TGI (A549 NSCLC): 310 nM
GI50 (HL-60(TB) leukemia): 68 nM
TGI (HL-60(TB) leukemia): > 10000 nM
GI50 (MALME-3M melanoma): 3.47 nM
TGI (MALME-3M melanoma): 78.7 nM
GI50 (UACC-62 melanoma): 3.93 nM
TGI (UACC-62 melanoma): 44 nM
GI50 (SNB-19 CNS): 41.2 nM
TGI (SNB-19 CNS): > 10000 nM
GI50 (MDA-MB-231 breast): 11.6 nM
TGI (MDA-MB-231 breast): > 3930 nM
GI50 (UO-31 renal): 2.11 nM
TGI (UO-31 renal): 61.1 nM
GI50 (OVCAR-4 ovarian): 6.46 nM
TGI (OVCAR-4 ovarian): 97 nM
GI50 (NCI-H460 lung): 5.89 nM
TGI (NCI-H460 lung): > 10000 nM
GI50 (RPMI-8226 leukemia): 3.42 nM
TGI (RPMI-8226 leukemia): 385 nM
GI50 (786-0 renal): 13.6 nM
TGI (786-0 renal): 287 nM
GI50 (SK-OV-3 ovarian): 4.65 nM
TGI (SK-OV-3 ovarian): 44.6 nM
GI50 (PC-3 prostate): 6.5 nM
TGI (PC-3 prostate): 598 nM
GI50 (LOX IMVI melanoma): 14.1 nM
TGI (LOX IMVI melanoma): 660 nM
GI50 (OVCAR-5 ovarian): 14.9 nM
TGI (OVCAR-5 ovarian): 2180 nM
GI50 (HCT-15 colon): 12.6 nM
TGI (HCT-15 colon): > 6080 nM
GI50 (SR leukemia): 16.8 nM
TGI (SR leukemia): 8070 nM
GI50 (MOLT-4 leukemia): 20.6 nM
TGI (MOLT-4 leukemia): > 3500 nM
GI50 (NCI/ADR-RES ovarian): 26.7 nM
TGI (NCI/ADR-RES ovarian): 537 nM
GI50 (SNB-75 CNS): 3.09 nM
TGI (SNB-75 CNS): 39.1 nM
GI50 (IGROV1 ovarian): 3.41 nM
TGI (IGROV1 ovarian): 55.9 nM
GI50 (NCI-H226 lung): 5.05 nM
TGI (NCI-H226 lung): 191 nM
GI50 (HOP-62 NSCLC): 21.8 nM
TGI (HOP-62 NSCLC): 415 nM
GI50 (OVCAR-3 ovarian): 12.5 nM
TGI (OVCAR-3 ovarian): 627 nM
GI50 (OVCAR-8 ovarian): 19.8 nM
TGI (OVCAR-8 ovarian): 431 nM
GI50 (SN12C renal): 9.83 nM
TGI (SN12C renal): > 10000 nM
GI50 (A498 renal): 1.85 nM
TGI (A498 renal): 6.89 nM
GI50 (KM12 colon): 17.2 nM
TGI (KM12 colon): 4980 nM
